Measured values reported in patent EP0937734B1, “11-Acetyl-12,13-dioxabicyclo ¬8.2.1 tridecenone derivatives, process for making them and pharmaceutical compositions containing them” (Abbott Products GmbH, priority 1998, dated 1999).
pIC50: −log10 of the molar value.

How the values were obtained:
[1] = biological target: T1, Motilin-Rezeptoren (Oryctolagus cuniculus, UniProt G1T803); assay: Binding of test substances to motilin receptors (displacement of 125I-labelled motilin, crude membrane preparation from rabbit antrum); design: species or system Kaninchen; settings: displacement of iodinated motilin (50 pM), rabbit antrum membrane fraction, 60 min at 30 °C; calculated from IC50
T1 construct: Die so erhaltene Gewebefraktion, welche als "rohe Membranzubereitung" bezeichnet wird, wird für den Test eingesetzt; from tissue; host or cells: rabbit antrum freed of mucosa, crude membrane fraction
Description: 1. Bestimmung des Bindungsvermögens der Testsubstanzen an Motilin-Rezeptoren.
Die Affinität der Verbindungen der Formel I an Motilin-Rezeptoren wird in vitro an einer Fraktion eines Gewebehomogenats aus dem Kaninchenantrum gemessen. Bestimmt wird die Verdrängung von radioaktiv markiertem jodiertem Motilin aus der Motilin-Rezeptor-Bindung durch die Testsubstanzen.
Die Rezeptor-Bindungsstudien werden nach einer Modifikation der Methode von Borman et al. (Regulatory Peptides 15 (1986), 143-153) durchgeführt. Zur Herstellung des ^125Jodmarkierten Motilins wird Motilin auf an sich bekannte Weise, z. B. analog der von Bloom et al. (Scand. J. Gastroenterol. 11 (1976) 47 - 52) beschriebenen Methode enzymatisch unter Verwendung von Lactoperoxidase jodiert.
Zur Gewinnung der in dem Test verwendeten Gewebehomogenatfraktion aus dem Kaninchenantrum wird das von Schleimhäuten befreite Antrum zerkleinert und im 10-fachen Volumen einer kalten Homogenisierungspufferlösung (50 mM Tris-HCl-Puffer, 250 mM Sucrose, 25 mM KCl, 10 mM MgCl2, pH 7,4) mit Zusatz von Inhibitoren (1 mM Jodacetamid, 1 µM Pepstatin, 0,1 mM Methylsulfonylfluorid, 0,1 g/l Trypsininhibitor, 0,25 g/l Bacitracin) mit einem Homogenisator 15 sec. bei 1500 Umdrehungen pro Minute homogenisiert. […]

[2] = In vivo determination of the influence on the resting tone of the lower oesophageal sphincter (pull-through manometry); design: species or system Beagle-Hunden
Description: 3. In-vivo-Bestimmung des Einflusses der Substanzen auf den Ruhe-Tonus des unteren Oesophagus Sphincter.
Diese Bestimmung wird an männlichen, wachen, nüchternen Beagle-Hunden vorgenommen, denen vor Versuchsbeginn je eine Oesophagus-Fistel und eine Duodenal-Kanüle gelegt worden sind. Der Druck des unteren Oesophagus Sphincter wird mittels eines perfundierten Kathetersystems mit seitlicher Öffnung, das mit einem Druckaufnehmer und einem Recorder verbunden ist, gemessen. Der Katheter wird über die Oesophagus-Fistel in den Magen geführt und dann langsam manuell zurückgezogen (= Durchzugsmanometrie). Beim Passieren des Katheterteils mit der seitlichen Öffnung durch die Hochdruckzone des unteren Oesophagus Sphincter wird ein Peak registriert. Aus diesem Peak wird der Druck in mm Hg bestimmt.
Auf diese Weise wird zunächst als Kontrollwert der basale Druck des Oesophagus Sphincter bestimmt. Anschließend wird die Testsubstanz oral appliziert und nach 15 min. wird der Druck am unteren Oesophagus Sphincter in 2-Minuten-Intervallen über einen Zeitraum von 60 min. gemessen. Die Steigerung des Druckes nach Testsubstanzgabe im Vergleich zu dem vorbestimmten basalen Druck wird berechnet.
In diesem Test nahm der basale Tonus des Oesophagus Sphincter durch eine Dosis von 2,15 µMol/kg der Substanz des Beispiels 1 um 143 % zu. Dieser Effekt hielt während der gesamten Testdauer von 60 min. an.

[3] = In vivo determination of the influence on gastric tone (barostat, gastric volume at constant pressure after lipid-induced relaxation); design: species or system Beagle-Hunden
Description: 2. In-vivo-Bestimmung des Einflusses der Substanzen auf den Magentonus
Der Magentonus spielt eine wichtige Rolle bei der Magenentleerung. Ein erhöhter Magentonus trägt zu einer beschleunigten Magenentleerung bei.
Der Einfluß von Substanzen auf den Magentonus wird an Beagle-Hunden mit Hilfe eines Barostaten bestimmt, welcher mit einem Kunststoffbeutel im Magen des Hundes verbunden ist und die Messung von Volumen oder Druck im Magen des Hundes ermöglicht. Mit dem Barostaten wird das Magenvolumen bei konstantem Druck im Magen oder der Magendruck bei konstantem Volumen im Magen bestimmt. Bei Erhöhung des Magentonus stellt man bei einem bestimmten Druck ein verringertes Magenvolumen fest und einen erhöhten Druck bei einem bestimmten Volumen. In dem zur Untersuchung der durch die Substanzen bewirkten Erhöhung des Magentonus verwendeten Testmodell wird die durch die Substanzen verursachte Magenvolumenänderung bei konstantem Druck gemessen. Der Magen der Versuchstiere wird durch Lipideinnahme relaxiert, d. h. der Magentonus sinkt, wodurch das Magenvolumen entsprechend zunimmt. Als Maß für die den Magentonus erhöhende Wirkung der Substanzen wird die nach Substanzeinnahme durch Wiederanstieg des Magentonus eintretende Reduktion des durch Lipidgabe vergrößerten Magenvolumens in % gemessen. […]

T1 sequence (G1T803 1-400): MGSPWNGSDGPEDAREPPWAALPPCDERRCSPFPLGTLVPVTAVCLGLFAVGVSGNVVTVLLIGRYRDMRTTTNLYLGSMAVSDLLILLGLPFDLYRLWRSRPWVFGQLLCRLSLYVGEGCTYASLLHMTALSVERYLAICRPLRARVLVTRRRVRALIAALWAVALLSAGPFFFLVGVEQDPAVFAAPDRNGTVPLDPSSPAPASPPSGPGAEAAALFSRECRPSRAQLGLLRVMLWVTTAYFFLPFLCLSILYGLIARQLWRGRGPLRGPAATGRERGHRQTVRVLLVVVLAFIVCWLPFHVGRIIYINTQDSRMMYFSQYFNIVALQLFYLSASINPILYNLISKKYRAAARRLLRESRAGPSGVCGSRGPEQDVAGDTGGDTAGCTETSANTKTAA

| pIC50 [1] | Compound | Duration of the effect on the tone of the Oesophagus Sphincter ([2]; 2,15 µMol/kg oral, effect lasted for the whole test duration) [min] | Zunahme des basalen Tonus des Oesophagus Sphincter ([2]; conscious fasted male Beagle dogs, 2,15 µMol/kg oral, versus basal pressure) [%] | Reduktion des nach Lipidgabe vergrößerten Magenvolumens ([3]; Beagle dogs, 2,15 µmol/kg i.d., constant pressure) | Reduktion des Magenvolumens (Lipid-induzierte Relaxierung des Magenvolumens) ([3]; Beagle dogs, 2,15 µmol/kg oral) |
| --- | --- | --- | --- | --- | --- |
| 8.01 | CO[C@]1(C)C[C@H](O[C@H]2[C@H](C)[C@@H](O[C@@H]3O[C@H](C)C[C@H](N(C)C(C)C)[C@H]3O)[C@@]3(C)CC(C)=C(O3)[C@H](C)[C@H](C(C)=O)OC(=O)[C@@H]2C)O[C@@H](C)[C@@H]1O [Beispiel 1, (2R,3S,4S,5R,6R,10R,11R]-3-[(2,6-Didesoxy-3-C-methyl-3-O-methyl-α-L-ribohexopyranosyl)-oxy]-5-[(3,4,6-tridesoxy-3-(N-methyl-N-isopropylamino)-β-D-xylohexopyranosyl)-oxy]-2,4,6,8,10-pentamethyl-11-acetyl-12,13-dioxabicyclo[8.2.1]-tridec-8-en-1-on] | ≥ 60 | 143 | 59,5% | praktisch völlig verhindert |
| 7.75 | CO[C@]1(C)C[C@H](O[C@H]2[C@H](C)[C@@H](O[C@@H]3O[C@H](C)C[C@H](N(C)C(C)C)[C@H]3OC(C)=O)[C@@]3(C)CC(C)=C(O3)[C@H](C)[C@H](C(C)=O)OC(=O)[C@@H]2C)O[C@@H](C)[C@@H]1O [Beispiel 2, (2R,3S,4S,5R,6R,10R,11R)-3-[(2,6-Didesoxy-3-C-methyl-3-O-methyl-α-L-ribohexopyranosyl)-oxy]-5-[(3,4,6-tridesoxy-2-O-acetyl-3-(N-methyl-N-isopropylamino)-β-D-xylohexopyranosyl)-oxy]-2,4,6,8,10-pentamethyl-11-acetyl-12,13-dioxabicyclo-[8.2.1]tridec-8-en-1-on] |  |  |  |  |
